Source: paper PMC9239272 (mBio, 2022)

Columns and labels:
SARS2 M^pro [1] = format: cell-based, SARS-CoV-2
SARS2 M^pro [2] = format: cell-based, SARS-CoV-2; remark: listed apart in the source
NL63 M^pro [3] = format: cell-based, HCoV-NL63; details: 2-fold dilution series beginning at 100 μM
229E M^pro = format: cell-based, HCoV-229E
NL63 M^pro [4] = details: in vitro studies; cited from earlier work

Molecule: Cc1ccc(NC(=O)c2ccc(CN3CCN(C)CC3)cc2)cc1Nc1nc(-c2cccnc2)cs1 [masitinib]
- dose responsiveness of WT Luc reporter (SARS2 M^pro [1]): tested negative at all concentrations

Molecule: CC(C)(C)NC(=O)N[C@H](C(=O)N1C[C@H]2[C@@H]([C@H]1C(=O)NC(CC1CCC1)C(=O)C(N)=O)C2(C)C)C(C)(C)C (some centres unmarked) [boceprevir]
- restoration of eGFP fluorescence of WT reporter (SARS2 M^pro [2]): comparatively modest increase in signal
- maximal signal increase over background (NL63 M^pro [3]): 1.9 fold
- maximal signal increase over background (229E M^pro): 4.3 fold
- IC50 (NL63 M^pro [4]): ~100 µM
- increase in signal of luciferase construct compared with eGFP construct (SARS2 M^pro [1]): ~ 3 fold
- maximal signal increase over background (SARS2 M^pro [1]): 16 fold

Molecule: CC(C)(C)[C@H](NC(=O)C(F)(F)F)C(=O)N1C[C@H]2[C@@H]([C@H]1C(=O)N[C@H](C#N)C[C@@H]1CCNC1=O)C2(C)C [nirmatrelvir]
- dose responsiveness of WT Luc reporter (SARS2 M^pro [1]): highest reporter signals at all tested concentrations

Molecule: CCOc1ccc2nc3cc(N)ccc3c(N)c2c1 [Ethacridine]
- dose responsiveness of WT Luc reporter (SARS2 M^pro [1]): tested negative at all concentrations

Molecule: GRL-0496
- cytotoxicity (293T cells): no cytotoxicity
- dose responsiveness of WT Luc reporter (SARS2 M^pro [1]): clear positive dose response

Molecule: GC376
- restoration of eGFP fluorescence of WT reporter (SARS2 M^pro [2]): strong restoration of expression and eGFP fluorescence
- maximal signal increase over background (NL63 M^pro [3]): 24 fold
- cell viability (293T cells; 48 h incubation, wide range of concentrations): cell viabilities remain consistent
- maximal signal increase over background (229E M^pro): 72 fold
- dose responsiveness of WT Luc reporter (SARS2 M^pro [1]): causes increased reporter expression
- increase in signal of luciferase construct compared with eGFP construct (SARS2 M^pro [1]): ~ 3 fold
- maximal signal increase over background (SARS2 M^pro [1]): 100 fold

Molecule: CCCCCCNC(=O)n1cc(F)c(=O)[nH]c1=O [Carmofur]
- dose responsiveness of WT Luc reporter (SARS2 M^pro [1]): tested negative at all concentrations

Molecule: O=c1c2ccccc2[se]n1-c1ccccc1 [ebselen]
- dose responsiveness of WT Luc reporter (SARS2 M^pro [1]): tested negative at all concentrations
